How the values were obtained:
Assay in all cases: relative viability (nuclei count vs DMSO), 5 days (fraction); higher = more cells survive
Bemcentinib + Pemetrexed = compound: Nc1nc(Nc2ccc3c(c2)CC[C@@H](N2CCCC2)CC3)nn1-c1cc2c(nn1)-c1ccccc1CCC2 [Bemcentinib] + Nc1nc2[nH]cc(CCc3ccc(C(=O)N[C@@H](CCC(=O)O)C(=O)O)cc3)c2c(=O)[nH]1 [Pemetrexed] (partner 0.2 µM)
Summary of the method: (§1)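 A single step with final 0.05% Triton X-100, 1% formaldehyde and 1 ug/ml Hoechst fixed the cells and stained nuclei 5 days after treatment. Lung cancer cell lines in 1536-well plates had been treated by pin tool the day after seeding with one drug alone or a fixed anchor-drug dose plus five library-drug doses (not always all listed) in √10 steps, and nuclei were counted on 4× images. Relative viability is the ratio of nuclei in treated wells to nuclei in vehicle wells, taken as the median of duplicate plates.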

Bemcentinib + Foretinib = compound: Nc1nc(Nc2ccc3c(c2)CC[C@@H](N2CCCC2)CC3)nn1-c1cc2c(nn1)-c1ccccc1CCC2 [Bemcentinib] + COc1cc2c(Oc3ccc(NC(=O)C4(C(=O)Nc5ccc(F)cc5)CC4)cc3F)ccnc2cc1OCCCN1CCOCC1 [Foretinib] (partner 0.25 µM)
Summary of the method: as §1

Bemcentinib + Navitoclax = compound: Nc1nc(Nc2ccc3c(c2)CC[C@@H](N2CCCC2)CC3)nn1-c1cc2c(nn1)-c1ccccc1CCC2 [Bemcentinib] + CC1(C)CCC(c2ccc(Cl)cc2)=C(CN2CCN(c3ccc(C(=O)NS(=O)(=O)c4ccc(N[C@H](CCN5CCOCC5)CSc5ccccc5)c(S(=O)(=O)C(F)(F)F)c4)cc3)CC2)C1 [Navitoclax] (partner 0.5 µM)
Summary of the method: as §1

Bemcentinib + Dasatinib = compound: Nc1nc(Nc2ccc3c(c2)CC[C@@H](N2CCCC2)CC3)nn1-c1cc2c(nn1)-c1ccccc1CCC2 [Bemcentinib] + Cc1nc(Nc2ncc(C(=O)Nc3c(C)cccc3Cl)s2)cc(N2CCN(CCO)CC2)n1 [Dasatinib] (partner 0.075 µM)
Summary of the method: as §1

Row | Cell Line | relative viability (Bemcentinib + Pemetrexed; first compound 0.04 µM) | relative viability (Bemcentinib + Pemetrexed; first compound 0.1265 µM) | relative viability (Bemcentinib + Pemetrexed; first compound 0.4 µM) | relative viability (Bemcentinib + Pemetrexed; first compound 1.265 µM) | relative viability (Bemcentinib + Pemetrexed; first compound 4 µM) | relative viability (Bemcentinib + Foretinib; first compound 0.04 µM) | relative viability (Bemcentinib + Foretinib; first compound 0.1265 µM) | relative viability (Bemcentinib + Foretinib; first compound 0.4 µM) | relative viability (Bemcentinib + Foretinib; first compound 1.265 µM) | relative viability (Bemcentinib + Foretinib; first compound 4 µM) | relative viability (Bemcentinib + Navitoclax; first compound 0.04 µM) | relative viability (Bemcentinib + Navitoclax; first compound 0.1265 µM) | relative viability (Bemcentinib + Navitoclax; first compound 0.4 µM) | relative viability (Bemcentinib + Navitoclax; first compound 1.265 µM) | relative viability (Bemcentinib + Navitoclax; first compound 4 µM) | relative viability (Bemcentinib + Dasatinib; first compound 0.04 µM) | relative viability (Bemcentinib + Dasatinib; first compound 0.1265 µM) | relative viability (Bemcentinib + Dasatinib; first compound 0.4 µM) | relative viability (Bemcentinib + Dasatinib; first compound 1.265 µM) | relative viability (Bemcentinib + Dasatinib; first compound 4 µM)
1 | ChaGo-K-1 | 0.265 | 0.262 | 0.274 | 0.244 | 0.251 | 0.93 | 1.04 | 0.899 | 0.951 | 0.906 | 0.872 | 0.933 | 1.02 | 0.862 | 0.624 | 0.591 | 0.614 | 0.636 | 0.496 | 0.481
2 | EBC-1 | – | – | – | – | – | 0.0932 | 0.0983 | 0.108 | 0.0894 | 0.103 | 0.377 | 0.404 | 0.431 | 0.394 | 0.422 | – | – | – | – | –
3 | EKVX | 0.355 | 0.42 | 0.422 | 0.401 | 0.333 | 0.837 | 0.488 | 0.842 | 1.11 | 0.834 | 0.859 | 1.01 | 1.03 | 0.804 | 1.1 | 0.556 | 0.528 | 0.592 | 0.628 | 0.588
4 | EMC-BAC-2 | 0.442 | 0.475 | 0.48 | 0.416 | 0.419 | 0.972 | 1.02 | 1.04 | 1.03 | 1.06 | 1.15 | 1.35 | 1.27 | 1.2 | 1.23 | 0.349 | 0.323 | 0.342 | 0.29 | 0.336
5 | EPLC-272H | 0.313 | 0.337 | 0.371 | 0.319 | 0.291 | 0.639 | 0.899 | 0.712 | 0.839 | 0.988 | – | 1.04 | 1.19 | 1.33 | 1.43 | 0.285 | 0.389 | 0.332 | 0.393 | 0.364
6 | H3255 | 0.533 | 0.616 | 0.585 | 0.624 | 0.517 | 0.897 | 0.857 | 0.766 | 0.892 | 0.724 | 0.397 | 0.581 | 0.67 | 0.325 | 0.506 | 0.308 | 0.396 | 0.315 | 0.332 | 0.346
7 | HARA | 0.236 | 0.243 | 0.241 | 0.245 | 0.196 | 0.856 | 1.11 | 1.01 | 1.04 | 0.958 | 1.18 | 1.18 | 1.2 | 1.13 | 1.16 | 0.124 | 0.27 | 0.253 | 0.221 | 0.21
8 | HCC-15 | 0.231 | 0.219 | 0.226 | 0.218 | 0.221 | 1.11 | 1.18 | 1.11 | 1.04 | 1.11 | 0.713 | 0.799 | 0.776 | 0.726 | 0.721 | 0.628 | 0.696 | 0.708 | 0.669 | 0.732
9 | HCC-44 | 0.676 | 0.665 | 0.684 | 0.723 | 0.679 | – | – | – | – | – | 1.09 | 1.13 | 1.01 | 1.12 | 1.02 | – | – | – | – | –

Reference: the supplement of paper PMC10307832
